According to PubChem BioAssay AID248 (DTP/NCI, 2004):
Several values for one entry are separate records, joined by “and”; a condition that tells them apart may be missing. Equal values may be shown once. Inconclusive results and toxic doses are left out.

Tested on: L1210 leukemia ip in BDF1 mice, survival T/C
Assay: NCI In Vivo Anticancer Drug Screen. Data for tumor model L1210 Leukemia (intraperitoneal) in B6D2F1 (BDF1) mice
Conditions: endpoint: mean survival time, higher = longer survival
Outline: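 Transplantable tumor model; survival measured in treated vs vehicle control mice. Value = treated/control.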

Structure (SMILES): O=NN(CCCl)C(=O)NC1CCCCC1
- T/C (dose: 0.06 mg/kg/injection, schedule: Q03HX024 (ip), vehicle: saline): 101 % of control
- T/C (dose: 0.06 mg/kg/injection, schedule: Q03HX024 (oral), vehicle: saline): 98 % of control
- T/C (dose: 0.06 mg/kg/injection, schedule: Q03HX040 (oral), vehicle: saline): 115 % of control
- T/C (dose: 0.13 mg/kg/injection, schedule: Q03HX024 (oral), vehicle: saline): 108 % of control
- T/C (dose: 0.13 mg/kg/injection, schedule: Q03HX040 (oral), vehicle: saline): 153 % of control
- T/C (dose: 0.16 mg/kg/injection, schedule: Q#B X003 (ip), vehicle: carboxymethylcellulose (CMC)): 103 % of control
- T/C (dose: 0.33 mg/kg/injection, schedule: Q#B X003 (ip), vehicle: carboxymethylcellulose (CMC)): 95 % of control
- T/C (dose: 0.39 mg/kg/injection, schedule: Q03HX040 (ip), vehicle: carboxymethylcellulose (CMC)): 100 % of control
- T/C (dose: 0.5 mg/kg/injection, schedule: Q01DX005 (ip), vehicle: saline): 101 % of control
- T/C (dose: 0.66 mg/kg/injection, schedule: Q#B X003 (ip), vehicle: carboxymethylcellulose (CMC)): 97 % of control
- T/C (dose: 0.78 mg/kg/injection, schedule: Q03HX024 (ip), vehicle: carboxymethylcellulose (CMC)): 106 % of control
- T/C (dose: 1.0 mg/kg/injection, schedule: Q01DX001 (ip), vehicle: saline): 104 % of control
- T/C (dose: 1.0 mg/kg/injection, schedule: Q01DX001 (oral), vehicle: saline): 100 % of control
- T/C (dose: 1.0 mg/kg/injection, schedule: Q01DX005 (ip), vehicle: saline): 104 % of control
- T/C (dose: 1.0 mg/kg/injection, schedule: Q03HX040 (ip), vehicle: saline): 100 % of control
- T/C (dose: 1.0 mg/kg/injection, schedule: Q## X001 (ip), vehicle: carboxymethylcellulose (CMC)): 106 % of control
- T/C (dose: 1.33 mg/kg/injection, schedule: Q#B X003 (ip), vehicle: carboxymethylcellulose (CMC)): 110 % of control
- T/C (dose: 1.56 mg/kg/injection, schedule: Q01DX009 (ip), vehicle: carboxymethylcellulose (CMC)): 105 % of control
- T/C (dose: 1.56 mg/kg/injection, schedule: Q03HX024 (ip), vehicle: carboxymethylcellulose (CMC)): 120 % of control
- T/C (dose: 1.56 mg/kg/injection, schedule: Q03HX040 (ip), vehicle: carboxymethylcellulose (CMC)): 119 % of control
- T/C (dose: 2.0 mg/kg/injection, schedule: Q01DX Z (ip), vehicle: carboxymethylcellulose (CMC)): 124 % of control
- T/C (dose: 2.0 mg/kg/injection, schedule: Q04DX004 (ip), vehicle: Klucel (hydroxypropylcellulose) (HPC)): 94 % of control
- T/C (dose: 2.66 mg/kg/injection, schedule: Q#B X003 (ip), vehicle: carboxymethylcellulose (CMC)): 121 % of control
- T/C (dose: 2.8 mg/kg/injection, schedule: Q01DX015 (ip), vehicle: carboxymethylcellulose (CMC)): 112 % of control
- T/C (dose: 3.12 mg/kg/injection, schedule: Q01DX005 (ip), vehicle: carboxymethylcellulose (CMC)): 113 % of control
- T/C (dose: 3.12 mg/kg/injection, schedule: Q01DX Z (ip), vehicle: carboxymethylcellulose (CMC)): 172 % of control
- T/C (dose: 4.0 mg/kg/injection, schedule: Q01DX009 (oral), vehicle: saline): 112 % of control
- T/C (dose: 4.0 mg/kg/injection, schedule: Q03HX003 (oral), vehicle: saline): 111 % of control
- T/C (dose: 4.2 mg/kg/injection, schedule: Q## X015 (ip), vehicle: carboxymethylcellulose (CMC)): 113 % of control
- T/C (dose: 4.4 mg/kg/injection, schedule: Q04DX004 (ip), vehicle: Klucel (hydroxypropylcellulose) (HPC)): 113 % of control
- T/C (dose: 5.0 mg/kg/injection, schedule: Q## X032 (ip), vehicle: carboxymethylcellulose (CMC)): 106 % of control and 110 % of control
- T/C (dose: 6.0 mg/kg/injection, schedule: Q02DX005 (ip), vehicle: carboxymethylcellulose (CMC)): 154 % of control
- T/C (dose: 6.0 mg/kg/injection, schedule: Q02DX006 (ip), vehicle: carboxymethylcellulose (CMC)): 158 % of control
- T/C (dose: 6.0 mg/kg/injection, schedule: Q02DX007 (ip), vehicle: carboxymethylcellulose (CMC)): 163 % of control
- T/C (dose: 6.0 mg/kg/injection, schedule: Q## X008 (ip), vehicle: carboxymethylcellulose (CMC)): 108 % of control
- T/C (dose: 6.25 mg/kg/injection, schedule: Q01DX001 (ip), vehicle: Klucel (hydroxypropylcellulose) (HPC)): 116 % of control
- T/C (dose: 6.25 mg/kg/injection, schedule: Q01DX001 (ip), vehicle: carboxymethylcellulose (CMC)): 109 % of control
- T/C (dose: 6.25 mg/kg/injection, schedule: Q01DX001 (oral), vehicle: carboxymethylcellulose (CMC)): 122 % of control
- T/C (dose: 6.25 mg/kg/injection, schedule: Q01DX005 (ip), vehicle: carboxymethylcellulose (CMC)): 157 % of control
- T/C (dose: 6.25 mg/kg/injection, schedule: Q07DX Z (ip), vehicle: carboxymethylcellulose (CMC)): 112 % of control
- T/C (dose: 6.7 mg/kg/injection, schedule: Q04DX004 (ip), vehicle: Klucel (hydroxypropylcellulose) (HPC)): 159 % of control
- T/C (dose: 7.2 mg/kg/injection, schedule: Q## X032 (ip), vehicle: carboxymethylcellulose (CMC)): 110 % of control
- T/C (dose: 7.5 mg/kg/injection, schedule: Q01DX001 (iv), vehicle: Klucel (hydroxypropylcellulose) (HPC)): 114 % of control
- T/C (dose: 8.0 mg/kg/injection, schedule: Q03HX003 (oral), vehicle: saline): 120 % of control
- T/C (dose: 8.0 mg/kg/injection, schedule: Q## X032 (ip), vehicle: carboxymethylcellulose (CMC)): 113 % of control
